Results as given in US10927123B2, “Modulators of the beta-3 adrenergic receptor useful for the treatment or prevention of disorders related thereto” (Arena Pharmaceuticals, Inc., priority 2016, dated 2021).

biological target: Beta-3 Adrenergic Receptor (Homo sapiens (Human), UniProt P13945); assay: HTRF cAMP antagonist assay (IC50 determination); assay type: cell-based; conditions: CHO-K1 cells stably expressing recombinant receptor; antagonism of isoproterenol at EC90; cAMP readout
Method in brief: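 In this functional readout, recombinant CHO-K1 cells received compound, then isoproterenol at its EC90. After 1 h at room temperature, cAMP levels were determined by HTRF using an on-plate standard curve, and IC50 values were fitted.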

Beta-3 Adrenergic Receptor, sequence (P13945 whole entry, species assumed): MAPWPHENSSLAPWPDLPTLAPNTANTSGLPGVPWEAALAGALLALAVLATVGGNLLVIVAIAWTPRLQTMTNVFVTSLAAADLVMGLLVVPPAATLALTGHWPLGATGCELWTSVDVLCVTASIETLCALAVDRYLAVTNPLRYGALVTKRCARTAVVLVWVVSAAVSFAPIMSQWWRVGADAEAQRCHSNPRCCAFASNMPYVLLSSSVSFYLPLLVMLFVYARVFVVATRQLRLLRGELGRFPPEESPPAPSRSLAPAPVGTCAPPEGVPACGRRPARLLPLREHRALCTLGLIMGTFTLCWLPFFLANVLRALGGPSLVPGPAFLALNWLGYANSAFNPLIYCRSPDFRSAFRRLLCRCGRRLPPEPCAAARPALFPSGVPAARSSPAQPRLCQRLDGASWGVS

Structure (SMILES)	IC50 [nM]
Cc1nc2c(cc1S(=O)(=O)N1CCC3(CC1)C[C@@H](NC[C@H](O)COc1cccc(S(=O)(=O)C4CC4)c1)CO3)N(C)CCO2 [Compound 259, (S)-1-(3-(cyclopropylsulfonyl)phenoxy)-3-((R)-8-(1,6-dimethyl-2,3-dihydro-1H-pyrido[2,3-b][1,4]oxazin-7-ylsulfonyl)-1-oxa-8-azaspiro[4.5]decan-3-ylamino)propan-2-ol]	158
CCCS(=O)(=O)c1cccc(OC[C@@H](O)CN[C@H]2COC3(CCN(S(=O)(=O)c4ccc5ncccc5c4)CC3)C2)c1 [Compound 115, (S)-1-(3-(propylsulfonyl)phenoxy)-3-((R)-8-(quinolin-6-ylsulfonyl)-1-oxa-8-azaspiro[4.5]decan-3-ylamino)propan-2-ol]	120
COc1ccc(S(=O)(=O)N2CCC3(CC2)C[C@H](NC[C@H](O)COc2cccc(S(=O)(=O)C4(CO)CC4)c2)CO3)cc1-c1ccc(C2(N)CC2)cc1 [Compound 225, (S)-1-((S)-8-(4′-(1-aminocyclopropyl)-6-methoxybiphenyl-3-ylsulfonyl)-1-oxa-8-azaspiro[4.5]decan-3-ylamino)-3-(3-(1-(hydroxymethyl)cyclopropylsulfonyl)phenoxy)propan-2-ol]	33.1
O=S(=O)(c1cccc(-c2ccc(CNCC(F)(F)F)cc2)c1)N1CCC2(CC1)C[C@@H](NC[C@H](O)COc1cccc(S(=O)(=O)C3(CO)CC3)c1)CO2 [Compound 264, (S)-1-(3-(1-(hydroxymethyl)cyclopropylsulfonyl)phenoxy)-3-((R)-8-(4′-((2,2,2-trifluoroethylamino)methyl)biphenyl-3-ylsulfonyl)-1-oxa-8-azaspiro[4.5]decan-3-ylamino)propan-2-ol]	980
O=S(=O)(CCO)c1cc(F)cc(OC[C@@H](O)CN[C@H]2COC3(CCN(S(=O)(=O)c4cnc5ccccc5c4)CC3)C2)c1 [Compound 248, (S)-1-(3-fluoro-5-(2-hydroxyethylsulfonyl)phenoxy)-3-((R)-8-(quinolin-3-ylsulfonyl)-1-oxa-8-azaspiro[4.5]decan-3-ylamino)propan-2-ol]	72.4
Cc1c(S(=O)(=O)N2CCC3(CC2)C[C@H](NC[C@H](O)COc2cccc(S(=O)(=O)C4(CO)CC4)c2)CO3)cnc2c1N(C)CCO2 [Compound 250, (S)-1-((S)-8-(1,8-dimethyl-2,3-dihydro-1H-pyrido[2,3-b][1,4]oxazin-7-ylsulfonyl)-1-oxa-8-azaspiro[4.5]decan-3-ylamino)-3-(3-(1-(hydroxymethyl)cyclopropylsulfonyl)phenoxy)propan-2-ol]	336
CCS(=O)(=O)c1cccc(OC[C@@H](O)CN[C@H]2COC3(CCN(S(=O)(=O)c4ccc5ncccc5c4)CC3)C2)c1 [Compound 112, (S)-1-(3-(ethylsulfonyl)phenoxy)-3-((R)-8-(quinolin-6-ylsulfonyl)-1-oxa-8-azaspiro[4.5]decan-3-ylamino)propan-2-ol]	39.5
CCOc1ccc(-c2ccc(CNC(C)C)cc2)cc1S(=O)(=O)N1CCC2(CC1)C[C@@H](NC[C@H](O)COc1cccc(S(=O)(=O)C3(CO)CC3)c1)CO2 [Compound 165, (S)-1-((R)-8-(4-ethoxy-4′-((isopropylamino)methyl)biphenyl-3-ylsulfonyl)-1-oxa-8-azaspiro[4.5]decan-3-ylamino)-3-(3-(1-(hydroxymethyl)cyclopropylsulfonyl)phenoxy)propan-2-ol]	64.4
O=S(=O)(c1cccc(OC[C@@H](O)CN[C@H]2COC3(CCN(S(=O)(=O)c4ccc5ncccc5c4)CC3)C2)c1)C1CCC1 [Compound 114, (S)-1-(3-(cyclobutylsulfonyl)phenoxy)-3-((R)-8-(quinolin-6-ylsulfonyl)-1-oxa-8-azaspiro[4.5]decan-3-ylamino)propan-2-ol]	52
Cc1cc(S(=O)(=O)N2CCC3(CC2)C[C@@H](NC[C@H](O)COc2cccc(S(=O)(=O)C4(CO)CC4)c2)CO3)ccc1Br [Compound 194, (S)-1-((R)-8-(4-bromo-3-methylphenylsulfonyl)-1-oxa-8-azaspiro[4.5]decan-3-ylamino)-3-(3-(1-(hydroxymethyl)cyclopropylsulfonyl)phenoxy)propan-2-ol]	13.6
